{"source": "patent US20190134003A1", "about": "“COMBINATION THERAPIES USING INDAZOLYLBENZAMIDE DERIVATIVES FOR THE TREATMENT OF CANCER” (ESANEX, INC., priority 2016, published 2019)", "key": {"[1]": {"assay": "Dose escalation, MTD/DLT and adverse events of SNX-5422 with carboplatin and paclitaxel in patients", "assay_type": "in vivo, human", "conditions": "SNX-5422 qod in combination with carboplatin (AUC 5) and paclitaxel (175 mg/m^2)", "description": "The performed dosing schedule is disclosed in FIG. 1. SNX-5422 dose was escalated as follows."}, "[2]": {"conditions": "every other day (qod), previously-established; cited from earlier work"}}, "data": [{"compound": "CC1(C)CC(=O)c2c(C(F)(F)F)nn(-c3ccc(C(N)=O)c(N[C@H]4CC[C@H](OC(=O)CN)CC4)c3)c2C1", "note": "[SNX-5422, trans-4-{(2-(aminocarbonyl)-5-[6,6-dimethyl-4-oxo-3-(trifluoromethyl)-4,5,6,7-tetrahydro-1H-indazol-1-yl]phenyl}amino)cyclohexyl glycinate]", "values": [{"measurement": "Maximum Tolerated Dose", "setting": "[1]", "value": 100, "unit": "mg/m^2"}, {"measurement": "single agent MTD", "setting": "[2]", "value": 100, "unit": "mg/m^2"}]}]}
